According to US7592372B2, “Liquid drug preparations” (Hisamitsu Pharmaceutical Co., Inc., priority 2001, dated 2009):

How the values were obtained:
Format in all cases: physicochemical
[1] = Sedimentation by naked eye observation after preservation at 70° C. for seven days
Description: Aqueous solutions containing 8 g of fudostein were adjusted to pH 2-7 using an appropriate amount of phosphoric acid or sodium hydroxide as shown in Table 1. Purified water was added to make the total amount of each solution 100 ml, thereby obtaining liquid fudostein preparations with different pHs. The liquid preparations were preserved at 70° C. for seven days to examine the residual ratio of fudostein in the solutions, color change, and sedimentation. The residual ratio of fudostein was calculated from the amount of fudostein determined by quantitative analysis using HPLC. The color change and sedimentation were evaluated by naked eye observation and rated according to the following standard. […] (Results) Aqueous solutions containing 8 g of fudostein and D-sorbitol in the amounts shown in Table 5 were adjusted to pH 3.5 by adding phosphoric acid. Purified water was added to make the total amount of each solution 100 ml, thereby obtaining liquid fudostein preparations.

[2] = Color change by naked eye observation after preservation at 70° C. for seven days; note: key: −: There was no color change in the liquid preparation; ±: There was slight color change in the liquid preparation; +: There was color change in the liquid preparation; ++: There was remarkable color change in the liquid preparation
Description: (§1) Aqueous solutions containing 8 g of fudostein were adjusted to pH 2-7 using an appropriate amount of phosphoric acid or sodium hydroxide as shown in Table 1. Purified water was added to make the total amount of each solution 100 ml, thereby obtaining liquid fudostein preparations with different pHs. The liquid preparations were preserved at 70° C. for seven days to examine the residual ratio of fudostein in the solutions, color change, and sedimentation. The residual ratio of fudostein was calculated from the amount of fudostein determined by quantitative analysis using HPLC. The color change and sedimentation were evaluated by naked eye observation and rated according to the following standard.
Evaluation standard for color change:
(§2) Purified water was added to make the total amount of each solution 100 ml, thereby obtaining liquid fudostein preparations. […]
(§3) Aqueous solutions containing 8 g of fudostein and D-sorbitol in the amounts shown in Table 5 were adjusted to pH 3.5 by adding phosphoric acid. Purified water was added to make the total amount of each solution 100 ml, thereby obtaining liquid fudostein preparations.

[3] = Residual ratio of fudostein (HPLC) after preservation at 70° C. for seven days
Description: as §1, §2, §3

[4] = Overall stability of liquid fudostein preparations after preservation at 70° C. for seven days; details: 8 g fudostein/100 ml
Description: Aqueous solutions containing 8 g of fudostein were adjusted to pH 2-7 using an appropriate amount of phosphoric acid or sodium hydroxide as shown in Table 1. Purified water was added to make the total amount of each solution 100 ml, thereby obtaining liquid fudostein preparations with different pHs. The liquid preparations were preserved at 70° C. for seven days to examine the residual ratio of fudostein in the solutions, color change, and sedimentation. The residual ratio of fudostein was calculated from the amount of fudostein determined by quantitative analysis using HPLC. The color change and sedimentation were evaluated by naked eye observation and rated according to the following standard. Aqueous solutions containing 8 g of fudostein and D-sorbitol in the amounts shown in Table 5 were adjusted to pH 3.5 by adding phosphoric acid. Purified water was added to make the total amount of each solution 100 ml, thereby obtaining liquid fudostein preparations.

[5] = 8 g fudostein/100 ml aqueous solution, pH 2.0, 70° C. for seven days
[6] = 8 g fudostein/100 ml aqueous solution, pH 2.5, 70° C. for seven days
[7] = 8 g fudostein/100 ml aqueous solution, pH 3.0, 70° C. for seven days
[8] = 8 g fudostein/100 ml aqueous solution, pH 3.5, 70° C. for seven days
[9] = 8 g fudostein/100 ml aqueous solution, pH 4.0, 70° C. for seven days
[10] = 8 g fudostein/100 ml aqueous solution, pH 5.0, 70° C. for seven days
[11] = 8 g fudostein/100 ml aqueous solution, pH 6.0, 70° C. for seven days
[12] = 8 g fudostein/100 ml aqueous solution, pH 7.0, 70° C. for seven days
[13] = 8 g fudostein/100 ml, D-sorbitol 0%, pH 3.5, 70° C. for seven days
[14] = 8 g fudostein/100 ml, D-sorbitol 10%, pH 3.5, 70° C. for seven days
[15] = 8 g fudostein/100 ml, D-sorbitol 20%, pH 3.5, 70° C. for seven days
[16] = 8 g fudostein/100 ml, D-sorbitol 30%, pH 3.5, 70° C. for seven days
[17] = 8 g fudostein/100 ml, D-sorbitol 40%, pH 3.5, 70° C. for seven days
[18] = 8 g fudostein/100 ml, D-sorbitol 50%, pH 3.5, 70° C. for seven days

## N[C@@H](CSCCCO)C(=O)O [fudostein, S-(3-hydroxypropyl)-L-cysteine]
[1]; [5]
  Sedimentation: ± (Slight sedimentation was observed.)
[1]; [6]
  Sedimentation: ± (Slight sedimentation was observed.)
[1]; [7]
  Sedimentation: −
[1]; [8]
  Sedimentation: −
[1]; [9]
  Sedimentation: −
[1]; [10]
  Sedimentation: −
[1]; [11]
  Sedimentation: −
[1]; [12]
  Sedimentation: −
[1]; [13]
  Sedimentation: −
[1]; [14]
  Sedimentation: −
[1]; [15]
  Sedimentation: −
[1]; [16]
  Sedimentation: −
[1]; [17]
  Sedimentation: + (Sedimentation was observed.)
[1]; [18]
  Sedimentation: + (Sedimentation was observed.)
[2]; [5]
  Color change: −
[2]; [6]
  Color change: −
[2]; [7]
  Color change: −
[2]; [8]
  Color change: −
[2]; [9]
  Color change: −
[2]; [10]
  Color change: ±
[2]; [11]
  Color change: +
[2]; [12]
  Color change: ++
[2]; [13]
  Color change: −
[2]; [14]
  Color change: −
[2]; [15]
  Color change: −
[2]; [16]
  Color change: −
[2]; [17]
  Color change: ±
[2]; [18]
  Color change: +
[3]; [5]
  Analytical value Residual ratio (%): 99.9%
[3]; [6]
  Analytical value Residual ratio (%): 100.0%
[3]; [7]
  Analytical value Residual ratio (%): 100.7%
[3]; [8]
  Analytical value Residual ratio (%): 100.3%
[3]; [9]
  Analytical value Residual ratio (%): 101.1%
[3]; [10]
  Analytical value Residual ratio (%): 100.1%
[3]; [11]
  Analytical value Residual ratio (%): 100.4%
[3]; [12]
  Analytical value Residual ratio (%): 99.4%
[3]; 8 g fudostein/100 ml, D-sorbitol 0%, pH 3.5 (phosphoric acid), 70° C. for seven days
  Analytical value Residual ratio (%): 99.6%
[3]; 8 g fudostein/100 ml, D-sorbitol 10%, pH 3.5 (phosphoric acid), 70° C. for seven days
  Analytical value Residual ratio (%): 99.4%
[3]; 8 g fudostein/100 ml, D-sorbitol 20%, pH 3.5 (phosphoric acid), 70° C. for seven days
  Analytical value Residual ratio (%): 99.0%
[3]; 8 g fudostein/100 ml, D-sorbitol 30%, pH 3.5 (phosphoric acid), 70° C. for seven days
  Analytical value Residual ratio (%): 99.3%
[3]; 8 g fudostein/100 ml, D-sorbitol 40%, pH 3.5 (phosphoric acid), 70° C. for seven days
  Analytical value Residual ratio (%): 99.9%
[3]; 8 g fudostein/100 ml, D-sorbitol 50%, pH 3.5 (phosphoric acid), 70° C. for seven days
  Analytical value Residual ratio (%): 100.4%
[4]; 70° C. for seven days
  pH at which the liquid fudostein preparation remains stable: ≤ 5.0
[4]; D-sorbitol, pH 3.5, 70° C. for seven days
  sugar alcohol concentration at which liquid fudostein preparations are stable: ≤ 40%
